Entries after “also recorded” stand apart in the source; their conditions may differ.

The values that follow come from US20230285570A1, “THERAPEUTICALLY USEFUL CURE-PRO MOLECULES FOR E3 LIGASE MEDIATED DEGRADATION OF PROTEINS, AND METHODS OF MAKING AND USING THEM” (CORNELL UNIVERSITY, priority 2020, published 2023).

Assay type in all cases: cell-based
Assay [1] relates to MV-4-11 cells. Description: CellTiter-Glo cell viability, MV-4-11 cells. The conditions noted are these: cotreated 1:1 with each of CRBN ligands 8046, 8047 and 8066, MV-4-11, 72 h, 10 nM-100 μM. A digest of the protocol:
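Viability by CellTiter-Glo luminescence. One protocol: 5×10^4 MV-4-11 cells, 24 h, compounds at 1 nM-100 μM each; other: 1×10^4 cells, 72 h, 10 nM-100 μM each. BRD ligands combined 1:1 with CRBN ligands; dose-response curves fitted.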
(Cellular ATP, detected with luciferase, serves as a proxy for viable cell number.)

Assay [2] concerns the target T1, BRD3 (Homo sapiens, UniProt Q15059).
T1 construct: endogenous in cells; host or cells: HCT116
Description: BRD protein family degradation in HCT116 cells, Western blot: BRD3. The settings on record: 1:1 with MDM2 ligands 8310 and 8312 (each), HCT116, 24 h, 100 nM-10 μM. How it is done: Namalwa, Ramosm HeLa, MCF7, or HT29 HCT116 cells (2.5-3×10^6) were treated for 24 hours with the indicated compounds solubilized in DMSO. The cells were washed in ice-cold PBS and were then lysed in RIPA lysis buffer (150 mM NaCl, 5 mM EDTA, 1% NP-40, 0.5% sodium deoxycholate, 0.1% SDS, 50 mM Tris, pH 8.0.) with Roche protease inhibitor complete cocktail and phosphatase inhibitors (10 mM sodium fluoride, 10 mM sodium pyrophosphate, 1 mM sodium orthovanadate and 20 mM β-glycerophosphate). The total protein concentrations were determined by Bradford Protein Assay (Pierce) and 10-20 μg of protein was loaded onto 4-15% Tris-Glycine gradient gels (Biorad). After standard gel electrophoresis, the separated proteins were transferred to PVDF membrane by wet transfer. The immunoblots were then blocked for 1 hour in 5% skim milk in TBST or 5% BSA in TBST, according to manufacturer's instructions, before an overnight incubation at 4° C. with indicated antibodies and membranes. […] Signal was detected with ECL Western Blotting Substrate (Pierce) and X-ray film processed with a Konica SRX-101 X-ray film processor or captured by Bio-Rad's Chemidoc Imaging system. […]

The target of assay [3] is BRD4 (Homo sapiens, UniProt O60885). Kind of assay: BRD protein family degradation in HCT116 cells, Western blot: BRD4. On the set-up: endogenous in cells. How it is done: Namalwa, Ramosm HeLa, MCF7, or HT29 HCT116 cells (2.5-3×10^6) were treated for 24 hours with the indicated compounds solubilized in DMSO. The cells were washed in ice-cold PBS and were then lysed in RIPA lysis buffer (150 mM NaCl, 5 mM EDTA, 1% NP-40, 0.5% sodium deoxycholate, 0.1% SDS, 50 mM Tris, pH 8.0.) with Roche protease inhibitor complete cocktail and phosphatase inhibitors (10 mM sodium fluoride, 10 mM sodium pyrophosphate, 1 mM sodium orthovanadate and 20 mM β-glycerophosphate). The total protein concentrations were determined by Bradford Protein Assay (Pierce) and 10-20 μg of protein was loaded onto 4-15% Tris-Glycine gradient gels (Biorad). After standard gel electrophoresis, the separated proteins were transferred to PVDF membrane by wet transfer. The immunoblots were then blocked for 1 hour in 5% skim milk in TBST or 5% BSA in TBST, according to manufacturer's instructions, before an overnight incubation at 4° C. with indicated antibodies and membranes. Membranes were then incubated with the appropriate horseradish peroxidase-conjugated secondary antibodies (1:5,000 dilution) for 1 h at room temperature and the bands were visualized using the Clarity Max Western ECL Substrate (Biorad) and the ChemiDoc Imaging System (Biorad). Signal was detected with ECL Western Blotting Substrate (Pierce) and X-ray film processed with a Konica SRX-101 X-ray film processor or captured by Bio-Rad's Chemidoc Imaging system.
HCT116 cells (3×10^6) were treated for 24 hours with the compounds solubilized in DMSO. Compounds were added at 100 nM-10 μM each. Standardized protein samples were electrophoresed and imaged as described in the Immunoblotting section above. FIGS. 64 and 65 depict the concentration-dependence of CURE-PRO-mediated BRD2 and BRD3 degradation using MDM2 ligands.
In general terms: Immunoblotting shows a protein as a band on a membrane.

T1 sequence (Q15059 whole entry): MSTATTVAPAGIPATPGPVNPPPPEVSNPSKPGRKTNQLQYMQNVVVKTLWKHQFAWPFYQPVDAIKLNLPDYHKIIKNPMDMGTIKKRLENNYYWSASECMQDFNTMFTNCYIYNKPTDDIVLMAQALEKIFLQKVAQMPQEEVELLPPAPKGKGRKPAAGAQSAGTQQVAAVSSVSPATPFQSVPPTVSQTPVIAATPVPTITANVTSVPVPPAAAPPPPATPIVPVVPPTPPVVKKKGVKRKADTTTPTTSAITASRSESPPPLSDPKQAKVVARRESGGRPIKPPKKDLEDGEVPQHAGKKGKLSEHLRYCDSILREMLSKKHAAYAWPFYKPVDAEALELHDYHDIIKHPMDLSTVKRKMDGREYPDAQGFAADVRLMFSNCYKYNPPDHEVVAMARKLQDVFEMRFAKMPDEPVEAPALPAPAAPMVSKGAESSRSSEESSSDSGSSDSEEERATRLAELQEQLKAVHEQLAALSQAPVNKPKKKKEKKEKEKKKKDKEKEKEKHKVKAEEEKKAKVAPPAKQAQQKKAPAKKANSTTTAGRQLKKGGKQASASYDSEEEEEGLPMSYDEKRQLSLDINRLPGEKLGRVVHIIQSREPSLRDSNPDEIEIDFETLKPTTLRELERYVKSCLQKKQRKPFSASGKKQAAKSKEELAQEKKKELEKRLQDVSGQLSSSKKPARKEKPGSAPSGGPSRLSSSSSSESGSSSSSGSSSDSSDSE

With `CCNC(=O)C[C@@H]1N=C(c2ccc(Cl)cc2)c2cc(OCCCCC(=O)Nc3cccc(B(O)O)c3)ccc2-n2c(C)nnc21` [BRD-E20, (3-(5-(((4S)-6-(4-chlorophenyl)-4-(2-(ethylamino)-2-oxoethyl)-1-methyl-4H-benzo[f][1,2,4]triazolo[4,3-a][1,4]diazepin-8-yl)oxy)pentanamido)phenyl)boronic acid], in assay [1], the “loss of cellular viability (toxicity) versus monomers alone” value was “reduced viability; also recorded: increased toxicity”.

For the compound `CCNC(=O)C[C@@H]1N=C(c2ccc(Cl)cc2)c2cc(OCCOCCNC(=O)c3cccc(O)c3O)ccc2-n2c(C)nnc21` [BRD-N39, N-(2-(2-(((4S)-6-(4-chlorophenyl)-4-(2-(ethylamino)-2-oxoethyl)-1-methyl-4H-benzo[f][1,2,4]triazolo[4,3-a][1,4]diazepin-8-yl)oxy)ethoxy)ethyl)-2,3-dihydroxybenzamide], the BRD3 degradation entry in assay [2] is given as “degradation of BRD3; also recorded: Degradation is evident”. In addition, the BRD4 degradation entry in assay [3] (1:1 with MDM2 ligands 8310 and 8312 (each), HCT116, 24 h, 100 nM-10 μM) is on record as “caused BRD4 degradation; also recorded: Degradation is evident”. The “selectivity of degradation among BRD2, BRD3 and BRD4” value in assay [3] (with MDM2 ligands 8310 and 8312, HCT116, Western blot) is “some selectivity for BRD4 over BRD2 and BRD3 is noted”.
